How the values were obtained:
Assay in all cases: In vitro antibacterial activity, agar dilution MIC
Format in all cases: cell-based
Candida albicans CCH 442 = details: code TT, BHI agar, 35-37° C., 20 to 24 hours, unit assumed
Procedure: (§1) Representative compounds of the present invention were assayed in vitro for antibacterial activity as follows: Twelve petri dishes containing successive aqueous dilutions of the test compound mixed with 10 mL of sterilized Brain Heart Infusion (BHI) agar (Difco 0418-01-5) were prepared. Each plate was inoculated with 1:100 (or 1:10 for slow-growing strains, such as Micrococcus and Streptococcus) dilutions of up to 32 different microorganisms, using a Steers replicator block. The inoculated plates were incubated at 35-37° C. for 20 to 24 hours. In addition, a control plate, using BHI agar containing no test compound, was prepared and incubated at the beginning and end of each test.
(§2) An additional plate containing a compound having known susceptibility patterns for the organisms being tested and belonging to the same antibiotic class as the test compound was also prepared and incubated as a further control, as well as to provide test-to-test comparability.
(§3) After incubation, each plate was visually inspected. The minimum inhibitory concentration (MIC) was defined as the lowest concentration of drug yielding no growth, a slight haze, or sparsely isolated colonies on the inoculum spot as compared to the growth control.

[1] = system: Enterococcusfaecium ATCC X043; details: code II, BHI agar, 35-37° C., 20 to 24 hours, unit assumed
Procedure: as §1, §2, §3

Escherichiacoli DC-2 = details: code SS, BHI agar, 35-37° C., 20 to 24 hours, unit assumed
Procedure: as §1, §2, §3

Escherichiacoli JUHL = details: code QQ, BHI agar, 35-37° C., 20 to 24 hours, unit assumed
Procedure: as §1, §2, §3

Escherichiacoli SS = details: code RR, BHI agar, 35-37° C., 20 to 24 hours, unit assumed
Procedure: as §1, §2, §3

[2] = system: Haemophilislnfluenzae DILL AMP R; details: code WW, BHI agar, 35-37° C., 20 to 24 hours, unit assumed
Procedure: as §1, §2, §3

[3] = system: Micrococcusluteus ATCC 4698; details: code PP, BHI agar, 35-37° C., 20 to 24 hours, unit assumed
Procedure: as §1, §2, §3

[4] = system: Micrococcusluteus ATCC 9341; details: code OO, BHI agar, 35-37° C., 20 to 24 hours, unit assumed
Procedure: as §1, §2, §3

[5] = system: Mycobacterium smegmatis ATCC 114; details: code UU, BHI agar, 35-37° C., 20 to 24 hours, unit assumed
Procedure: as §1, §2, §3

[6] = system: Nocardia Asteroides ATCC 99700; details: code VV, BHI agar, 35-37° C., 20 to 24 hours, unit assumed
Procedure: as §1, §2, §3

[7] = system: Staphylococcus aureus 1775; details: code GG, BHI agar, 35-37° C., 20 to 24 hours, unit assumed
Procedure: as §1, §2, §3

[8] = system: Staphylococcus aureus A-5177; details: code BB, BHI agar, 35-37° C., 20 to 24 hours, unit assumed
Procedure: as §1, §2, §3

[9] = system: Staphylococcus aureus A-5278; details: code CC, BHI agar, 35-37° C., 20 to 24 hours, unit assumed
Procedure: as §1, §2, §3

[10] = system: Staphylococcus aureus ATCC 6538P; details: code AA, BHI agar, 35-37° C., 20 to 24 hours, unit assumed
Procedure: as §1, §2, §3

[11] = system: Staphylococcus aureus CMX 553; details: code FF, BHI agar, 35-37° C., 20 to 24 hours, unit assumed
Procedure: as §1, §2, §3

[12] = system: Staphylococcus aureus CMX 642A; details: code DD, BHI agar, 35-37° C., 20 to 24 hours, unit assumed
Procedure: as §1, §2, §3

[13] = system: Staphylococcus aureus NCTC 10649M; details: code EE, BHI agar, 35-37° C., 20 to 24 hours, unit assumed
Procedure: as §1, §2, §3

[14] = system: Staphylococcus epidermidis 3519; details: code HH, BHI agar, 35-37° C., 20 to 24 hours, unit assumed
Procedure: as §1, §2, §3

[15] = system: Streptococcus Pneumonia 5649; details: code ZZA, BHI agar, 35-37° C., 20 to 24 hours, unit assumed
Procedure: as §1, §2, §3

[16] = system: Streptococcus Pneumonia 5979; details: code ZZ, BHI agar, 35-37° C., 20 to 24 hours, unit assumed
Procedure: as §1, §2, §3

[17] = system: Streptococcus Pneumonia ATCC 6303; details: code XX, BHI agar, 35-37° C., 20 to 24 hours, unit assumed
Procedure: as §1, §2, §3

[18] = system: Streptococcus Pneumonia GYR 1171; details: code YY, BHI agar, 35-37° C., 20 to 24 hours, unit assumed
Procedure: as §1, §2, §3

[19] = system: Streptococcus agalactiae CMX 508; details: code KK, BHI agar, 35-37° C., 20 to 24 hours, unit assumed
Procedure: as §1, §2, §3

[20] = system: Streptococcus bovis A-5169; details: code JJ, BHI agar, 35-37° C., 20 to 24 hours, unit assumed
Procedure: as §1, §2, §3

[21] = system: Streptococcus pyogenes 930; details: code MM, BHI agar, 35-37° C., 20 to 24 hours, unit assumed
Procedure: as §1, §2, §3

[22] = system: Streptococcus pyogenes EES61; details: code LL, BHI agar, 35-37° C., 20 to 24 hours, unit assumed
Procedure: as §1, §2, §3

[23] = system: Streptococcus pyogenes PIU 2548; details: code NN, BHI agar, 35-37° C., 20 to 24 hours, unit assumed
Procedure: as §1, §2, §3

SMILES	Antibacterial Activity (MIC) (Candida albicans CCH 442) [µg/mL]	Antibacterial Activity (MIC) [1] [µg/mL]	Antibacterial Activity (MIC) (Escherichiacoli DC-2) [µg/mL]	Antibacterial Activity (MIC) (Escherichiacoli JUHL) [µg/mL]	Antibacterial Activity (MIC) (Escherichiacoli SS) [µg/mL]	Antibacterial Activity (MIC) [2] [µg/mL]	Antibacterial Activity (MIC) [3] [µg/mL]	Antibacterial Activity (MIC) [4] [µg/mL]	Antibacterial Activity (MIC) [5] [µg/mL]	Antibacterial Activity (MIC) [6] [µg/mL]	Antibacterial Activity (MIC) [7] [µg/mL]	Antibacterial Activity (MIC) [8] [µg/mL]	Antibacterial Activity (MIC) [9] [µg/mL]	Antibacterial Activity (MIC) [10] [µg/mL]	Antibacterial Activity (MIC) [11] [µg/mL]	Antibacterial Activity (MIC) [12] [µg/mL]	Antibacterial Activity (MIC) [13] [µg/mL]	Antibacterial Activity (MIC) [14] [µg/mL]	Antibacterial Activity (MIC) [15] [µg/mL]	Antibacterial Activity (MIC) [16] [µg/mL]	other results
C=CCC1(C)C(=O)OC(CC)C2(C)OC(=O)NC2C(C)C(=O)C(C)CC(C)(OCC=Cc2cnc3ccccc3c2)C(OC2OC(C)CC(N(C)C)C2O)C(C)C1=O (stereo not drawn) [Example 4, Compound of formula (II): R^a is —CH2CH═CH-(3-quinolinyl), R^b is H, Y and Z together are O, T is —NH—, R is —CH2CH═CH2]	> 100	0.2	> 100	> 100	3.1	16	0.78	0.1	3.1	0.1	> 100	0.39	> 100	0.78	0.39	0.78	0.78	0.39	2	64	Antibacterial Activity (MIC) [17]: 0.25 µg/mL; Antibacterial Activity (MIC) [18]: 0.25 µg/mL; Antibacterial Activity (MIC) [19]: 0.2 µg/mL; Antibacterial Activity (MIC) [20]: 0.05 µg/mL; Antibacterial Activity (MIC) [21]: 12.5 µg/mL; Antibacterial Activity (MIC) [22]: 0.1 µg/mL; Antibacterial Activity (MIC) [23]: 0.78 µg/mL
CCC1OC(=O)C(C)(O)C(=O)C(C)C(OC2OC(C)CC(N(C)C)C2O)C(C)(OCC(O)CO)CC(C)C(=O)C(C)C2NC(=O)OC12C (stereo not drawn) [Example 3, Compound of formula (II): R^a is —CH2CH(OH)CH2OH, R^b is H, Y and Z together are O, T is —NH—, R is —OH]	> 100	100	> 100	> 100	100	> 128	> 100	50	> 100	> 100	> 100	> 100	> 100	> 100	> 100	> 100	> 100	> 100	> 128	> 128	Antibacterial Activity (MIC) [17]: 64 µg/mL; Antibacterial Activity (MIC) [18]: 32 µg/mL; Antibacterial Activity (MIC) [19]: 50 µg/mL; Antibacterial Activity (MIC) [20]: 50 µg/mL; Antibacterial Activity (MIC) [21]: > 100 µg/mL; Antibacterial Activity (MIC) [22]: 100 µg/mL; Antibacterial Activity (MIC) [23]: > 100 µg/mL
CCC1OC(=O)C(C)(O)C(=O)C(C)C(OC2OC(C)CC(N(C)C)C2O)C(C)(OC)CC(C)C(=O)C(C)C2N(CCCCc3ccccc3)C(=O)OC12C (stereo not drawn) [Example 2, Compound of formula (II): R^a is CH3, R^b is H, Y and Z together are O, T is —N(W(R^g))—, W is —(CH2)p—, p is 4, R^g is phenyl, R is —OH]	100	0.39	> 100	> 100	6.2	64	0.78	0.39	3.1	3.1	100	1.56	100	1.56	1.56	3.1	1.56	3.1	1	32	Antibacterial Activity (MIC) [17]: 0.5 µg/mL; Antibacterial Activity (MIC) [18]: 0.25 µg/mL; Antibacterial Activity (MIC) [19]: 0.2 µg/mL; Antibacterial Activity (MIC) [20]: 0.2 µg/mL; Antibacterial Activity (MIC) [21]: 25 µg/mL; Antibacterial Activity (MIC) [22]: 0.1 µg/mL; Antibacterial Activity (MIC) [23]: 0.39 µg/mL
